In patent US20160039825A1 (BIOGEN MA INC., priority 2013, published 2016):
Where a name gives a salt, the structure may show the parent alone.

Target: T1, Human ATX protein (Homo sapiens, UniProt Q13822)
T1 construct: made in house
Test: Autotaxin (ATX) assay, FRET with FS-3 substrate
Type: biochemical
How it was run: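 Hydrolysis of the FRET substrate FS-3 (2 μM final) unquenches fluorescein, read at excitation 485 nm and emission 538 nm after 2 h at room temperature, protected from light. Purified human ATX (1.0 μg/mL) and compound were first incubated for 30 min in pH 7.4 Tris/salt buffer containing 1 mg/mL fatty acid-free BSA.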

[1] = upper bound bins (no greater than 100, 250 or 500 nM), FS-3 2 μM, ATX 1.0 μg/mL

| IC50 [1] | SMILES | further results |
| --- | --- | --- |
|  | CCOC(=O)C1CN(C(=O)OCc2cc(C(F)(F)F)cc(C(F)(F)F)c2)Cc2ccnn21 (stereo not drawn) [Example 405] | IC50 (greater than 10 μM): > 10000 nM |
|  | COC(=O)C1CN(C(=O)OCc2cc(C(F)(F)F)cc(C(F)(F)F)c2)Cc2ccnn2C1 (stereo not drawn) [Example 406] | IC50 (greater than 10 μM): > 10000 nM |
|  | O=C(OCc1cc(C(F)(F)F)cc(C(F)(F)F)c1)N1CCn2nc(Br)cc2C1 [Example 407] | inhibition at 10 µM (10 uM compound): 50% |
| ≤ 100 nM | CCOC(=O)c1cc2n(n1)CC(O)CN(C(=O)OCc1cc(C(F)(F)F)cc(C(F)(F)F)c1)C2 (stereo not drawn) [Example 409] |  |
| ≤ 250 nM | O=C(O)c1cc2n(n1)CCN(C(=O)OCc1cc(Cl)cc(C(F)(F)F)c1)C2 [Example 410, 5-(((3-chloro-5-(trifluoromethyl)benzyl)oxy)carbonyl)-4,5,6,7-tetrahydropyrazolo[1,5-a]pyrazine-2-carboxylic acid] |  |
| ≤ 100 nM | O=C(O)Cn1cc(-c2cc3n(n2)CCCN(C(=O)OCc2cc(C(F)(F)F)cc(C(F)(F)F)c2)C3)cn1 [Example 412] |  |
| ≤ 250 nM | O=C(O)C1CN(C(=O)OCc2cc(C(F)(F)F)cc(C(F)(F)F)c2)Cc2ccnn2C1 (stereo not drawn) [Example 415] |  |
| ≤ 100 nM | O=C(O)C1CCN(C(=O)c2cc3n(n2)CCN(C(=O)OCc2cc(C(F)(F)F)cc(C(F)(F)F)c2)C3)CC1 [Example 418] |  |
| ≤ 250 nM | O=C(O)c1cc2n(n1)CCN(C(=O)OCc1cc(C(F)(F)F)cc(C(F)(F)F)c1)C2 [Example 419] |  |
| ≤ 500 nM | CC1c2cc(C(=O)O)nn2CCCN1C(=O)CCc1cc(Cl)cc(Cl)c1 (stereo not drawn) [Example 420] |  |
| ≤ 500 nM | O=C(O)c1cc2n(n1)CC(O)CN(C(=O)OCc1cc(C(F)(F)F)cc(C(F)(F)F)c1)C2 (stereo not drawn) [Example 421] |  |
| ≤ 100 nM | NC1CCN(C(=O)c2cc3n(n2)CCN(C(=O)OCc2cc(C(F)(F)F)cc(C(F)(F)F)c2)C3)CC1 [Example 422, 3,5-bis(trifluoromethyl)benzyl 2-(4-aminopiperidine-1-carbonyl)-6,7-dihydropyrazolo[1,5-a]pyrazine-5(4H)-carboxylate hydrochloride] |  |
| ≤ 100 nM | CC1CNCCN1C(=O)c1cc2n(n1)CCN(C(=O)OCc1cc(C(F)(F)F)cc(C(F)(F)F)c1)C2 (stereo not drawn) [Example 423] |  |
| ≤ 100 nM | NC1CN(C(=O)c2cc3n(n2)CCN(C(=O)OCc2cc(C(F)(F)F)cc(C(F)(F)F)c2)C3)C1 [Example 424] |  |
| ≤ 100 nM | NCCNC(=O)c1cc2n(n1)CCN(C(=O)OCc1cc(C(F)(F)F)cc(C(F)(F)F)c1)C2 [Example 425] |  |
| ≤ 100 nM | CC1CNCC(C)N1C(=O)c1cc2n(n1)CCN(C(=O)OCc1cc(C(F)(F)F)cc(C(F)(F)F)c1)C2 (stereo not drawn) [Example 430] |  |
| ≤ 100 nM | NC1CN(C(=O)c2cc3n(n2)CCN(C(=O)OCc2cc(Cl)cc(C(F)(F)F)c2)C3)C1 [Example 431] |  |
| ≤ 100 nM | CC1(C)CNCCN1C(=O)c1cc2n(n1)CCN(C(=O)OCc1cc(Cl)cc(C(F)(F)F)c1)C2 [Example 432] |  |
| ≤ 100 nM | CC1CN(C(=O)c2cc3n(n2)CCN(C(=O)OCc2cc(C(F)(F)F)cc(C(F)(F)F)c2)C3)CC(C)N1 (stereo not drawn) [Example 433] |  |
| ≤ 100 nM | O=C(OCc1cc(Cl)cc(C(F)(F)F)c1)N1CCn2nc(C(=O)N3CCNCC3)cc2C1 [Example 434] |  |
| ≤ 100 nM | O=C(OCc1cc(C(F)(F)F)cc(C(F)(F)F)c1)N1CCn2nc(C(=O)N3CCNCC3)cc2C1 [Example 435] |  |
| ≤ 100 nM | CC1(C)CN(C(=O)c2cc3n(n2)CCN(C(=O)OCc2cc(C(F)(F)F)cc(C(F)(F)F)c2)C3)CCN1 [Example 436] |  |
| ≤ 100 nM | CNC1CN(C(=O)c2cc3n(n2)CCN(C(=O)OCc2cc(C(F)(F)F)cc(C(F)(F)F)c2)C3)C1 [Example 438] |  |
| ≤ 100 nM | CC1CN(C(=O)c2cc3n(n2)CCN(C(=O)OCc2cc(C(F)(F)F)cc(C(F)(F)F)c2)C3)CCN1 (stereo not drawn) [Example 439] |  |
| ≤ 100 nM | CC1(C)CNCCN1C(=O)c1cc2n(n1)CCN(C(=O)OCc1cc(C(F)(F)F)cc(C(F)(F)F)c1)C2 [Example 441] |  |
| ≤ 100 nM | O=C(OCc1cc(Cl)cc(C(F)(F)F)c1)N1CCn2nc(C(=O)N3CC4CNCC4C3)cc2C1 (stereo not drawn) [Example 442] |  |

| IC50 [1] | SMILES | further results |
| --- | --- | --- |
| ≤ 100 nM | O=C(OCc1cc(C(F)(F)F)cc(C(F)(F)F)c1)N1CCn2nc(C3CCNCC3)cc2C1 [Example 443] |  |
| ≤ 100 nM | O=C(OCc1cc(C(F)(F)F)cc(C(F)(F)F)c1)N1CCn2nc(C3=CCCNC3)cc2C1 [Example 444] |  |
| ≤ 250 nM | CC(c1cc2n(n1)CCCN(C(=O)OCc1cc(Cl)cc(Cl)c1)C2)N1CCCCC1 (stereo not drawn) [Example 446] |  |
| ≤ 100 nM | CC(c1cc2n(n1)CCN(C(=O)OCc1cc(C(F)(F)F)cc(C(F)(F)F)c1)C2)N1CCN(C(=O)OC(C)(C)C)CC1 (stereo not drawn) [Example 448] |  |
| ≤ 500 nM | CC(c1cc2n(n1)CCCN(C(=O)OCc1cc(Cl)cc(Cl)c1)C2)N1CCCC1 (stereo not drawn) [Example 454] |  |
| ≤ 250 nM | CC(c1cc2n(n1)CCN(C(=O)OCc1cc(C(F)(F)F)cc(C(F)(F)F)c1)C2)N1CCC(C(=O)O)CC1 (stereo not drawn) [Example 456] |  |
| ≤ 250 nM | CC(c1cc2n(n1)CCN(C(=O)OCc1cc(C(F)(F)F)cc(C(F)(F)F)c1)C2)N1CCC(O)CC1 (stereo not drawn) [Example 457] |  |
| ≤ 100 nM | CC(c1cc2n(n1)CCN(C(=O)OCc1cc(C(F)(F)F)cc(C(F)(F)F)c1)C2)N1CCCCC1 (stereo not drawn) [Example 458] |  |
| ≤ 100 nM | O=C(NCCO)c1cc2n(n1)CCN(C(=O)OCc1cc(C(F)(F)F)cc(C(F)(F)F)c1)C2 [Example 460, 3,5-bis(trifluoromethyl)benzyl 2-((2-hydroxyethyl)carbamoyl)-6,7-dihydropyrazolo[1,5-a]pyrazine-5(4H)-carboxylate] |  |
| ≤ 100 nM | CC(C)(C)OC(=O)N1CCN(C(=O)c2cc3n(n2)CCN(C(=O)OCc2cc(C(F)(F)F)cc(C(F)(F)F)c2)C3)C(C)(C)C1 [Example 462] |  |
| ≤ 100 nM | CC1CN(C(=O)OC(C)(C)C)CCN1C(=O)c1cc2n(n1)CCN(C(=O)OCc1cc(C(F)(F)F)cc(C(F)(F)F)c1)C2 (stereo not drawn) [Example 464] |  |
| ≤ 100 nM | CC(C)(C)OC(=O)N1CCN(C(=O)c2cc3n(n2)CCN(C(=O)OCc2cc(C(F)(F)F)cc(C(F)(F)F)c2)C3)CC1(C)C [Example 466] |  |
| ≤ 100 nM | CC1CN(C(=O)c2cc3n(n2)CCN(C(=O)OCc2cc(C(F)(F)F)cc(C(F)(F)F)c2)C3)CCN1C(=O)OC(C)(C)C (stereo not drawn) [Example 467] |  |
| ≤ 100 nM | CC1CN(C(=O)c2cc3n(n2)CCN(C(=O)OCc2cc(C(F)(F)F)cc(C(F)(F)F)c2)C3)CC(C)N1C(=O)OC(C)(C)C (stereo not drawn) [Example 469] |  |
| ≤ 100 nM | CC(C)(C)OC(=O)N1CCN(C(=O)c2cc3n(n2)CCN(C(=O)OCc2cc(Cl)cc(C(F)(F)F)c2)C3)CC1 [Example 471] |  |
| ≤ 100 nM | CC(CO)NC(=O)c1cc2n(n1)CCN(C(=O)OCc1cc(C(F)(F)F)cc(C(F)(F)F)c1)C2 (stereo not drawn) [Example 472] |  |
| ≤ 100 nM | CC(C)(C)OC(=O)N1CCN(C(=O)c2cc3n(n2)CCN(C(=O)OCc2cc(Cl)cc(C(F)(F)F)c2)C3)C(C)(C)C1 [Example 475] |  |
| ≤ 100 nM | CC1CN(C(=O)OC(C)(C)C)CC(C)N1C(=O)c1cc2n(n1)CCN(C(=O)OCc1cc(C(F)(F)F)cc(C(F)(F)F)c1)C2 (stereo not drawn) [Example 476] |  |
| ≤ 100 nM | O=C(OCc1cc(Cl)cc(C(F)(F)F)c1)N1CCn2nc(C(=O)N3CCC(O)CC3)cc2C1 [Example 479] |  |
| ≤ 250 nM | CN(C)C(=O)c1cc2n(n1)CCN(C(=O)OCc1cc(C(F)(F)F)cc(C(F)(F)F)c1)C2 [Example 480] |  |
| ≤ 100 nM | CCCNC(=O)c1cc2n(n1)CCN(C(=O)OCc1cc(C(F)(F)F)cc(C(F)(F)F)c1)C2 [Example 481] |  |
| ≤ 100 nM | CNC(=O)c1cc2n(n1)CCN(C(=O)OCc1cc(C(F)(F)F)cc(C(F)(F)F)c1)C2 [Example 482] |  |
| ≤ 100 nM | O=C(OCc1cc(C(F)(F)F)cc(C(F)(F)F)c1)N1CCn2nc(C(=O)N3CC(O)C3)cc2C1 [Example 483] |  |
| ≤ 100 nM | O=C(OCc1cc(C(F)(F)F)cc(C(F)(F)F)c1)N1CCn2nc(C(=O)N3CCC3)cc2C1 [Example 485] |  |
| ≤ 100 nM | CC(C)(C)OC(=O)N1CCN(C(=O)c2cc3n(n2)CCN(C(=O)OCc2cc(C(F)(F)F)cc(C(F)(F)F)c2)C3)CC1 [Example 486] |  |

| SMILES | IC50 [1] | further results |
| --- | --- | --- |
| O=C(OCc1cc(C(F)(F)F)cc(C(F)(F)F)c1)N1CCn2nc(C(=O)N3C4CCC3CNC4)cc2C1 [Example 426] | ≤ 100 nM |  |
| CC(c1cc2n(n1)CCN(C(=O)OCc1cc(C(F)(F)F)cc(C(F)(F)F)c1)C2)N1CC2CCC(C1)N2 (stereo not drawn) [Example 427] | ≤ 100 nM |  |
| CC(c1cc2n(n1)CCN(C(=O)OCc1cc(C(F)(F)F)cc(C(F)(F)F)c1)C2)N1C2CCC1CNC2 (stereo not drawn) [Example 428] | ≤ 100 nM |  |
| O=C(OCc1cc(Cl)cc(C(F)(F)F)c1)N1CCn2nc(C(=O)N3CC4CCC(C3)N4)cc2C1 [Example 429] | ≤ 100 nM |  |
| O=C(OCc1cc(C(F)(F)F)cc(C(F)(F)F)c1)N1CCn2nc(C(=O)N3CC4CCC(C3)N4)cc2C1 [Example 437] | ≤ 100 nM |  |
| CC(c1cc2n(n1)CCN(C(=O)OCc1cc(C(F)(F)F)cc(C(F)(F)F)c1)C2)N1CC2CCC(C1)N2C(=O)OC(C)(C)C (stereo not drawn) [Example 449] | ≤ 100 nM |  |
| CC(c1cc2n(n1)CCN(C(=O)OCc1cc(C(F)(F)F)cc(C(F)(F)F)c1)C2)N1C2CCC1CN(C(=O)OC(C)(C)C)C2 (stereo not drawn) [Example 450] | ≤ 100 nM |  |
| CC(c1cc2n(n1)CCCN(C(=O)OCc1cc(Cl)cc(Cl)c1)C2)N1C2CCCC1CCC2 (stereo not drawn) [Example 453] | ≤ 250 nM |  |
| CC(C)(C)OC(=O)N1C2CCC1CN(C(=O)c1cc3n(n1)CCN(C(=O)OCc1cc(C(F)(F)F)cc(C(F)(F)F)c1)C3)C2 [Example 470] | ≤ 100 nM |  |
| CC(C)(C)OC(=O)N1CC2CCC(C1)N2C(=O)c1cc2n(n1)CCN(C(=O)OCc1cc(C(F)(F)F)cc(C(F)(F)F)c1)C2 [Example 474] | ≤ 100 nM |  |
| CC(C)(C)OC(=O)N1C2CCC1CN(C(=O)c1cc3n(n1)CCN(C(=O)OCc1cc(Cl)cc(C(F)(F)F)c1)C3)C2 [Example 478] | ≤ 100 nM |  |
| O=C(OCc1cc(C(F)(F)F)cc(C(F)(F)F)c1)N1CCn2nc(C(=O)N3C4CCCC3CCC4)cc2C1 [Example 487] | ≤ 100 nM |  |
